“And” between values parts separate entries of the source, which are not always exact repeats. Equal entries are not always repeated.
Columns and labels:
[1] = 101 kPa, Liquid
[2] = refractive index (Na D-line) (dimensionless); conditions: 101.33 kPa, Liquid
[3] = xn = mol fraction of the nth substance listed; conditions: 101 kPa, Liquid
[4] = refractive index (Na D-line) (dimensionless); xn = mol fraction of the nth substance listed; conditions: 101 kPa, Liquid

CCCCO [butan-1-ol]
Conditions	mass density, 298.15 K [kg/m3]	mass density, 303.15 K [kg/m3]	mass density, 308.15 K [kg/m3]	refractive index, 298.15 K	refractive index, 303.15 K	refractive index, 308.15 K	speed of sound, 298.15 K [m/s]	viscosity, 298.15 K [mPa·s]	viscosity, 303.15 K [mPa·s]	viscosity, 308.15 K [mPa·s]
[1]	805.8	802	798	–	–	–	1237	2.564	2.245	1.981
[2]	–	–	–	1.3983	1.3955	1.3937	–	–	–	–

CC(=O)N(C)C [N,N-dimethylethanamide]
Conditions	mass density, 298.15 K [kg/m3]	mass density, 303.15 K [kg/m3]	mass density, 308.15 K [kg/m3]	refractive index, 298.15 K	refractive index, 303.15 K	refractive index, 308.15 K	speed of sound, 298.15 K [m/s]	viscosity, 298.15 K [mPa·s]	viscosity, 303.15 K [mPa·s]	viscosity, 308.15 K [mPa·s]
[1]	946.8	942.1	937.5	–	–	–	1458	1.261	1.154	1.047
[2]	–	–	–	1.4363	1.4342	1.432	–	–	–	–

OCCCl [1-chloro-2-hydroxyethane]
Conditions	mass density, 298.15 K [kg/m3]	mass density, 303.15 K [kg/m3]	mass density, 308.15 K [kg/m3]	refractive index, 298.15 K	refractive index, 303.15 K	refractive index, 308.15 K	speed of sound, 298.15 K [m/s]	viscosity, 298.15 K [mPa·s]	viscosity, 303.15 K [mPa·s]	viscosity, 308.15 K [mPa·s]
[1]	1200.9	1192.5	1187.1	–	–	–	1358	3.104	2.669	2.347
[2]	–	–	–	1.4411	1.438	1.4326	–	–	–	–

CCOC(C)=O [ethyl acetate]
Conditions	mass density, 298.15 K [kg/m3]	mass density, 303.15 K [kg/m3]	mass density, 308.15 K [kg/m3]	refractive index, 298.15 K	refractive index, 303.15 K	refractive index, 308.15 K	speed of sound, 298.15 K [m/s]	viscosity, 298.15 K [mPa·s]	viscosity, 303.15 K [mPa·s]	viscosity, 308.15 K [mPa·s]
[1]	894.2	887.9	881.6	–	–	–	1155	0.438	0.414	0.392
[2]	–	–	–	1.3713	1.3673	1.3631	–	–	–	–

CCOC(=O)CC(=O)OCC [diethyl 1,3-propanedioate]
Conditions	mass density, 298.15 K [kg/m3]	mass density, 303.15 K [kg/m3]	mass density, 308.15 K [kg/m3]	refractive index, 298.15 K	refractive index, 303.15 K	refractive index, 308.15 K	speed of sound, 298.15 K [m/s]	viscosity, 298.15 K [mPa·s]	viscosity, 303.15 K [mPa·s]	viscosity, 308.15 K [mPa·s]
[1]	1049.6	1044.2	1038.8	–	–	–	1304	1.941	1.755	1.602
[2]	–	–	–	1.4132	1.4108	1.4085	–	–	–	–

CCOC(=O)CC(=O)OCC [diethyl 1,3-propanedioate] + C1COCCO1
Conditions	mass density, 298.15 K [kg/m3]	mass density, 303.15 K [kg/m3]	mass density, 308.15 K [kg/m3]	refractive index, 298.15 K	refractive index, 303.15 K	refractive index, 308.15 K	speed of sound, 298.15 K [m/s]	viscosity, 298.15 K [mPa·s]	viscosity, 303.15 K [mPa·s]	viscosity, 308.15 K [mPa·s]
[3], x2 = 0	1049.6	1044.2	1038.8	–	–	–	1304	1.941	1.755	1.602
[3], x2 = 0.1005	1048.1	1042.8	1037.4	–	–	–	1308	1.858	1.698	1.537
[3], x2 = 0.1982	1046.6	1041.2	1035.8	–	–	–	1312	1.777	1.626	1.476
[3], x2 = 0.2959	1044.9	1039.6	1034.2	–	–	–	1316	1.7	1.556	1.413
[3], x2 = 0.3959	1043	1037.7	1032.3	–	–	–	1320	1.619	1.484	1.349
[3], x2 = 0.4959	1041	1035.6	1030.2	–	–	–	1324	1.542	1.415	1.287
[3], x2 = 0.5951	1038.8	1033.4	1028	–	–	–	1328	1.465	1.346	1.227
[3], x2 = 0.6944	1036.4	1030.9	1025.5	–	–	–	1332	1.391	1.28	1.17
[3], x2 = 0.796	1033.7	1028.2	1022.8	–	–	–	1337	1.316	1.214	1.111
[3], x2 = 0.8977	1030.9	1025.4	1019.9	–	–	–	1341	1.249	1.153	1.057
[4], x2 = 0	–	–	–	1.4132	1.4108	1.4085	–	–	–	–
[4], x2 = 0.1005	–	–	–	1.4135	1.4113	1.409	–	–	–	–
[4], x2 = 0.1982	–	–	–	1.4139	1.412	1.4093	–	–	–	–
[4], x2 = 0.2959	–	–	–	1.4143	1.4123	1.4095	–	–	–	–
[4], x2 = 0.3959	–	–	–	1.4147	1.4127	1.4099	–	–	–	–
[4], x2 = 0.4959	–	–	–	1.415	1.4137	1.4103	–	–	–	–
[4], x2 = 0.5951	–	–	–	1.4161	1.4147	1.4113	–	–	–	–
[4], x2 = 0.6944	–	–	–	1.4171	1.4157	1.4122	–	–	–	–
[4], x2 = 0.796	–	–	–	1.4181	1.4167	1.4132	–	–	–	–
[4], x2 = 0.8977	–	–	–	1.4192	1.4231	1.4141	–	–	–	–

C1COCCO1 [1,4-dioxane] + CCOC(=O)CC(=O)OCC
x1 = 1
Conditions	mass density, 298.15 K [kg/m3]	mass density, 303.15 K [kg/m3]	mass density, 308.15 K [kg/m3]	refractive index, 298.15 K	refractive index, 303.15 K	refractive index, 308.15 K	speed of sound, 298.15 K [m/s]	viscosity, 298.15 K [mPa·s]	viscosity, 303.15 K [mPa·s]	viscosity, 308.15 K [mPa·s]
[3]	1028.6	1022.9	1017.2	–	–	–	1345	1.196	1.095	1.008
[4]	–	–	–	1.4203	1.4164	1.4145	–	–	–	–

C1COCCO1 [1,4-dioxane]
Conditions	mass density, 298.15 K [kg/m3]	mass density, 303.15 K [kg/m3]	mass density, 308.15 K [kg/m3]	refractive index, 298.15 K	refractive index, 303.15 K	refractive index, 308.15 K	speed of sound, 298.15 K [m/s]	viscosity, 298.15 K	viscosity, 303.15 K	viscosity, 308.15 K [mPa·s]
[1]	1028.6	1022.9	1017.2	–	–	–	1345	1.196 mPa·s and 1.195 mPa·s	1.102 mPa·s and 1.095 mPa·s	1.008
[2]	–	–	–	1.4203	1.4164	1.4145	–	–	–	–

Clc1ccccc1Cl [1,2-dichlorobenzene] + C1COCCO1
Conditions	mass density, 298.15 K [kg/m3]	mass density, 303.15 K [kg/m3]	mass density, 308.15 K [kg/m3]	refractive index, 298.15 K	refractive index, 303.15 K	refractive index, 308.15 K	speed of sound, 298.15 K [m/s]	viscosity, 298.15 K [mPa·s]	viscosity, 303.15 K [mPa·s]	viscosity, 308.15 K [mPa·s]
[3], x2 = 0	1300.9	1295.4	1289.7	–	–	–	1280	1.324	1.214	1.105
[3], x2 = 0.1025	1278.5	1272.9	1267.3	–	–	–	1287	1.311	1.203	1.095
[3], x2 = 0.203	1255.8	1250.1	1244.5	–	–	–	1293	1.298	1.191	1.085
[3], x2 = 0.2983	1232.9	1227.3	1221.6	–	–	–	1299	1.285	1.181	1.076
[3], x2 = 0.3965	1208.5	1202.8	1197.1	–	–	–	1305	1.273	1.169	1.066
[3], x2 = 0.4955	1182.5	1176.9	1171.2	–	–	–	1312	1.26	1.158	1.056
[3], x2 = 0.596	1154.9	1149.3	1143.6	–	–	–	1319	1.247	1.147	1.047
[3], x2 = 0.6976	1125.6	1120	1114.3	–	–	–	1325	1.234	1.135	1.037
[3], x2 = 0.7992	1094.7	1089.1	1083.4	–	–	–	1332	1.221	1.124	1.027
[3], x2 = 0.8971	1063.3	1057.7	1051.9	–	–	–	1338	1.209	1.113	1.018
[4], x2 = 0	–	–	–	1.5499	1.5476	1.545	–	–	–	–
[4], x2 = 0.1025	–	–	–	1.5374	1.5333	1.5325	–	–	–	–
[4], x2 = 0.203	–	–	–	1.5269	1.5246	1.5224	–	–	–	–
[4], x2 = 0.2983	–	–	–	1.5171	1.5148	1.5125	–	–	–	–
[4], x2 = 0.3965	–	–	–	1.5048	1.5023	1.4998	–	–	–	–
[4], x2 = 0.4955	–	–	–	1.4924	1.4902	1.4879	–	–	–	–
[4], x2 = 0.596	–	–	–	1.4799	1.4768	1.4738	–	–	–	–
[4], x2 = 0.6976	–	–	–	1.4652	1.4628	1.4604	–	–	–	–
[4], x2 = 0.7992	–	–	–	1.4513	1.4484	1.4455	–	–	–	–
[4], x2 = 0.8971	–	–	–	1.4365	1.4337	1.4308	–	–	–	–

ClC=C(Cl)Cl [trichloroethene]
Conditions	mass density, 298.15 K [kg/m3]	mass density, 303.15 K [kg/m3]	mass density, 308.15 K [kg/m3]	refractive index, 298.15 K	refractive index, 303.15 K	refractive index, 308.15 K	speed of sound, 298.15 K [m/s]	viscosity, 298.15 K [mPa·s]	viscosity, 303.15 K [mPa·s]	viscosity, 308.15 K [mPa·s]
[1]	1455.4	1447	1438.5	–	–	–	1027	0.573	0.547	0.521
[2]	–	–	–	1.476	1.4729	1.4698	–	–	–	–

Clc1ccccc1Cl [1,2-dichlorobenzene]
Conditions	mass density, 298.15 K [kg/m3]	mass density, 303.15 K [kg/m3]	mass density, 308.15 K [kg/m3]	refractive index, 298.15 K	refractive index, 303.15 K	refractive index, 308.15 K	speed of sound, 298.15 K [m/s]	viscosity, 298.15 K [mPa·s]	viscosity, 303.15 K [mPa·s]	viscosity, 308.15 K [mPa·s]
[1]	1300.9	1295.4	1289.7	–	–	–	1280	1.324	1.214	1.105
[2]	–	–	–	1.5499	1.5476	1.545	–	–	–	–

Reference: the NIST ThermoML archive (doi:10.1021/je049609w)
